Patent US20260226100A1, “Compound - Diagnostic Marker For Biliary Tract Cancer, Method For Detecting Enzymatic Activity, Method For Diagnosis Of Biliary Tract Cancer, Kit Comprising The Compound, Uses Of The Compound And Method For The Treatment Of Biliary Tract Cancer” (Urteste S.A., priority 2023, published 2026)
“And” between values parts separate entries of the source, which are not always exact repeats. Equal values may be shown once. *1 amine or outer side, *2 acyl side, *3 side chain or, on linkers, in order; H or OH if unused. Where no end group is shown, it is not given here. [ ]: non-standard residue; d: D form. Benzoyl(5-NH,2-NO2) = O=C(c1cc(N[*:1])ccc1[N+](=O)[O-])[*:2]; 2Abz = Nc1ccccc1C(=O)O

What was measured:
Assay type in all cases: biochemical, human
[1] = tested on: proteolytic enzymes in urine from a subject suffering from biliary tract cancer; test: Absorbance measurement of substrate hydrolysis in urine from subjects with biliary tract cancer; conditions: for absorbance: 405 nm, pH 8.0, 37° C., 60 minutes, triplicate
Description: (§1) The activity of the novel compounds according to the invention was studied in a group of 20 subjects diagnosed with biliary tract cancer using the representative compound according to the invention. […] The remaining compounds according to the invention are characterized by the analogous mechanism of action. For this purpose, the representative compound according to the invention, ABZ^1-Glu^2-Arg^3-Arg^4-Ala^5-NH2, was dissolved in dimethyl sulfoxide (at a concentration of 0.5 mg/mL) and then 50 L of the solution was mixed with 120 L of a buffer (200 mM Tris-HCl, pH 8.0) and 80 L of urine from a subject suffering from biliary tract cancer. The measurement was performed on a 96-well plate designed for measuring absorbance and each sample was analysed in triplicate at the temperature of 37° C. The duration of the measurement was 60 minutes. During the measurement, the wavelength characteristic for the chromophore (ANB-NH2) being released was monitored at the wavelength 405 nm (range 380-430 nm).
The observed magnitude of increase in absorbance in time is different for each of the examined samples.
Such a result may be due to the difference in the activity as well as the amount of enzymes responsible for the enzymatic cleavage (proteolysis). […] The result indicates the absence of proteolytic enzymes specific/characteristic of biliary tract cancer.

[2] = tested on: urine samples taken from healthy persons; test: Absorbance measurement of substrate hydrolysis in urine from healthy subjects; conditions: for absorbance: 405 nm, pH 8.0, 37° C., 60 minutes, triplicate
[3] = tested on: urine samples from subjects with biliary tract cancer or another neoplastic disease; test: Selectivity of substrate cleavage in urine of patients with different cancer types; conditions: urine of patients with testicle, large intestine, kidney, prostate, pancreas, liver, lung, ovarian and rectum cancer
Source text: The samples tested for each type of cancer were derived from 20 different patients for each of the tested cancers. The results are mean values for given cancer types.
as §1
Furthermore, the dependence of the cleavage selectivity of the substrate, i.e. the compound according to the invention, on the cancer type being examined, was studied. […]

cleavage of the substrate ([1]; all urine samples 1-13 from persons suffering from biliary tract cancer): underwent cleavage
absorbance ([1]; urine sample 1, biliary tract cancer): 0.004 and 0.002 and 0.003
absorbance ([1]; urine sample 2, biliary tract cancer): 0.0068 and 0.0034 and 0.0053
absorbance ([1]; urine sample 3, biliary tract cancer): 0.0035 and 0.005 and 0.0048
absorbance ([1]; urine sample 4, biliary tract cancer): 0.004 and 0.0067 and 0.0051
absorbance ([1]; urine sample 6, biliary tract cancer): 0.002 and 0.0021 and 0.0026
absorbance ([1]; urine sample 7, biliary tract cancer): 0.084 and 0.092 and 0.087
absorbance ([1]; urine sample 8, biliary tract cancer): 0.0746 and 0.0948 and 0.084
absorbance ([1]; urine sample 9, biliary tract cancer): 0.053 and 0.0458 and 0.0497
absorbance ([1]; urine sample 10, biliary tract cancer): 0.0436 and 0.035 and 0.041
absorbance ([1]; urine sample 11, biliary tract cancer): 0.0051 and 0.0041 and 0.0048
absorbance ([1]; urine sample 12, biliary tract cancer): 0.0025 and 0.0028 and 0.0032
absorbance ([1]; urine sample 13, biliary tract cancer): 0.0046 and 0.005 and 0.0047
Substance: ABZ-Glu-Arg-Arg-Ala-ANB-NH2 ([2Abz]ERRA-{Benzoyl(5-NH,2-NO2)-NH2})
absorbance ([2]; urine sample 14, healthy subject): 0.000000
absorbance ([2]; urine sample 15, healthy subject): 0.000000
absorbance ([2]; urine sample 16, healthy subject): 0.000000
absorbance ([2]; urine sample 17, healthy subject): 0.000000
absorbance ([2]; urine sample 18, healthy subject): 0.000000
absorbance ([2]; urine sample 19, healthy subject): 0.000000
absorbance ([2]; urine sample 20, healthy subject): 0.000000
absorbance ([2]; urine sample 21, healthy subject): 0.000000
absorbance ([2]; urine sample 22, healthy subject): 0.000000
absorbance ([2]; urine sample 23, healthy subject): 0.000000
increase in absorbance / hydrolysis ([2]; urine samples 14 to 23 from healthy persons): does not lead to an increase in absorbance
cleavage of the substrate / increase in absorbance [3]: is not subject to cleavage
